In patent publication US4225595A, “Piperazine phosphates and phosphonate insecticides” (priority 1979, dated 1980):
Converted amounts (≈) assume the structure as drawn.

These compounds were tested on Black Bean Aphid [Aphis fabae (Scop.)] (assay: Black Bean Aphid (BBA) plant spray assay, mortality after three days). Details: spray on infested nasturtium plants.
Type: in vivo
Source text: (§1) Screening was initiated at a maximal concentration level believed to be injurious to the insect population. The initial level should not be understood as representing a maximum at which a viable test for insecticidal activity can be conducted. […]
(§2) Nasturtium plants, Tropaeolum sp., approximately five centimeters (cm) high were transplanted into sandy loam soil in three-inch clay pots. Each pot was infested with 25-50 black bean aphids of mixed ages. Twenty-four hours later the pots were sprayed to the point of run-off with 50--50 acetone-water solutions of the test compounds.
(§3) Mortality rates were recorded after the infested plants had been held in the greenhouse for three days. Test concentrations ranged from 0.05% down to that at which 50% mortality occurs. Green Peach Aphid [Myzus persicae (Sulzer)], (GPA)
(§4) A less than 50% mortality rate at the initial concentration is indicated by a "greater than" sign (>). An approximately 50% mortality rate is indicated by the initial concentration rate. Other results are the dilutions at which an LD50 was achieved.

| SMILES | LD50 BBA |
| --- | --- |
| CCOP(=S)(OCC)SCC(=O)N1CCN(C(=O)Oc2ccccc2)CC1 [Compound 23, 1-N-phenyloxycarbo-4-N-O,O-diethylphosphorodithioylacetyl piperazine] | .002% |
| CCOP(=S)(OCC)SCC(=O)N1CCN(C(=O)SC)CC1 [Compound 27, 1-N-methylthiocarbo-4-N-O,O-diethylphosphorodithioylacetyl piperazine] | .001% |
| COP(=S)(OC)SCC(=O)N1CCN(C(=O)SC(C)(C)C)CC1C (centres unmarked) [Compound 32, 1-N-carbo-t-butylthio-4-N'-O,O-dimethylphosphorodithioylacetyl-3-methyl piperazine] | > .05% |
| CCOP(=S)(OCC)SCC(=O)N1CCN(C(=O)SC(C)(C)C)CC1C (centres unmarked) [Compound 33, 1-N-carbo-t-butylthio-4-N'-O,O-diethylphosphorodithioylacetyl-3-methyl piperazine] | > .005% |

What follows are compounds tested on Green Peach Aphid [Myzus persicae (Sulzer)] (assay: Green Peach Aphid (GPA) plant spray assay). Details: spray on infested radish plants, three days.
Type: in vivo
Source text: (§5) Screening was initiated at a maximal concentration level believed to be injurious to the insect population. The initial level should not be understood as representing a maximum at which a viable test for insecticidal activity can be conducted.
as §2, §3
(§6) The insecticidal properties were tested in the same manner as for black beam aphids with the substitution of the nasturtiums by radish plants, Rhaphanus sativus. German Cockroach [Blatella germanica (Linne)], (GR)--Direct Spray
as §4

| SMILES | LD50 GPA |
| --- | --- |
| CCOP(=S)(OCC)SCC(=O)N1CCN(C(=O)Oc2ccccc2)CC1 [Compound 23, 1-N-phenyloxycarbo-4-N-O,O-diethylphosphorodithioylacetyl piperazine] | .008% |
| CCOP(=S)(OCC)SCC(=O)N1CCN(C(=O)SC)CC1 [Compound 27, 1-N-methylthiocarbo-4-N-O,O-diethylphosphorodithioylacetyl piperazine] | .01% |

Each compound was assayed on German Cockroach [Blatella germanica (Linne)] (assay: German Cockroach (GR) direct spray, mortality 7 days later). Details: one-month-old nymphs, initial 0.1%.
Type: in vivo
Procedure: as §5
(§7) Mobile insects, such as houseflies, German cockroaches, Lygus bugs, were contained for treatment in circular cardboard cages covered with cellophane on the bottom and tulle netting on the top.
as §6
(§8) Test compounds were diluted in a 50--50 acetonewater solution. Two cubic centimeters (cc) of the compound solutions were sprayed through a DeVilbiss type EGA hand spray gun into cages each containing 10 one-month-old German cockroach nymphs.
The percent mortality was recorded 7 days later. Test concentrations ranged from 0.1% down to that at which approximately 50% mortality occurs.
as §4

| SMILES | LD50 GR |
| --- | --- |
| CCOP(=S)(OCC)SCC(=O)N1CCN(C(=O)Oc2ccccc2)CC1 [Compound 23, 1-N-phenyloxycarbo-4-N-O,O-diethylphosphorodithioylacetyl piperazine] | > .1% |
| CCOP(=S)(OCC)SCC(=O)N1CCN(C(=O)SC)CC1 [Compound 27, 1-N-methylthiocarbo-4-N-O,O-diethylphosphorodithioylacetyl piperazine] | > .1% |

These compounds were tested on Lygus Bug [Lygus hesperus (Knight)] (assay: Lygus Bug (LB) direct spray assay, mortality 48 hours later). Details: adults, initial 0.05%.
Type: in vivo
Procedure: as §5, §7, §8
Lygus Bug [Lygus hesperus (Knight)], (LB)--Direct Spray Assay
The species was treated in the same manner as the German cockroach. The cages contained one string beam pod and 10 adult Lygus bugs. The percent mortality was recorded 48 hours later. Test concentrations ranged from 0.05% down to that at which approximately 50% mortality occurs. Saltmarsh Caterpillar [Estigmene acrea (Drury)], (SMC)--Leaf Dip Assay
as §4

| SMILES | LD50 LB |
| --- | --- |
| CCOP(=S)(OCC)SCC(=O)N1CCN(C(=O)Oc2ccccc2)CC1 [Compound 23, 1-N-phenyloxycarbo-4-N-O,O-diethylphosphorodithioylacetyl piperazine] | > .05% |
| CCOP(=S)(OCC)SCC(=O)N1CCN(C(=O)SC)CC1 [Compound 27, 1-N-methylthiocarbo-4-N-O,O-diethylphosphorodithioylacetyl piperazine] | > .05% |

The compounds below were run on Cabbage Looper [Trichoplusia ni (Hubner)] (assay: Cabbage Looper (CL) leaf dip assay). Details: squash cotyledons, initial 0.1%.
Type: in vivo
Procedure: as §5
Test compounds were diluted in a 50--50 acetone-water solution. Approximately 1×1.5 inch sections of curly dock (Rumex crispus) leaves were immersed in the test solution for 2-3 seconds. After drying on a wire screen, the leaves were placed in petri dishes containing a moistened piece of filter paper. Each dish was infested with 5 secondinstar saltmarsh larvae.
Mortality of the larvae was recorded 48 hours later. A piece of synthetic media was added to the dishes containing surviving larvae. The larvae were then observed for 5 additional days for delayed effects of the test compounds. Test concentrations ranged from 0.05% down to that at which approximately 50% mortality occurs. Cabbage Looper [Trichoplusia ni (Hubner)], (CL)
The effectiveness of the compounds was tested in the same manner as for the saltmarsh caterpillar with two exceptions. Cotyledons of hyzini squash (Calabacita abobrinha, were substituted for curly dock leaves and the initial test concentration was 0.1%. Tobacco Budworm [Heliothis virescens (Fabricius)], (TBW)
as §4

| SMILES | LD50 CL |
| --- | --- |
| CCOP(=S)(OCC)SCC(=O)N1CCN(C(=O)Oc2ccccc2)CC1 [Compound 23, 1-N-phenyloxycarbo-4-N-O,O-diethylphosphorodithioylacetyl piperazine] | .1% |
| CCOP(=S)(OCC)SCC(=O)N1CCN(C(=O)SC)CC1 [Compound 27, 1-N-methylthiocarbo-4-N-O,O-diethylphosphorodithioylacetyl piperazine] | > .1% |

Each compound was assayed on Southern House Mosquito Larvae (Culex pipiens quinquefasciatus) (assay: Southern House Mosquito larvae (M) assay, mortality 48 hours after treatment). Details: third-instar larvae in aqueous solution, initial 1 ppm, read-out: LD50 M.
Type: in vivo
Procedure: as §5
Tobacco budworms were tested in the same manner as the cabbage looper. Romaine lettuce (Latuca sativa) leaves provided the substrate. Southern House Mosquito Larvae (Culex pipiens quinquefasciatus), (M)
Ten third-instar larvae were placed in a six ounce wax paper cup containing 100 ml of an aqueous solution of the test compounds at a concentration of 1 ppm. The treated larvae were stored at 70° F. (21.5° C.) and mortality was recorded 48 hours after treatment. Two-Spotted Mite [Tetranychus urticae (Koch)], (2SM)
as §4

| SMILES | LC50 [µg/mL] |
| --- | --- |
| CCOP(=S)(OCC)SCC(=O)N1CCN(C(=O)Oc2ccccc2)CC1 [Compound 23, 1-N-phenyloxycarbo-4-N-O,O-diethylphosphorodithioylacetyl piperazine] | 1 (≈ 2.31 µM) |
| CCOP(=S)(OCC)SCC(=O)N1CCN(C(=O)SC)CC1 [Compound 27, 1-N-methylthiocarbo-4-N-O,O-diethylphosphorodithioylacetyl piperazine] | > 1 |
| COP(=S)(OC)SCC(=O)N1CCN(C(=O)SC(C)(C)C)CC1C (centres unmarked) [Compound 32, 1-N-carbo-t-butylthio-4-N'-O,O-dimethylphosphorodithioylacetyl-3-methyl piperazine] | > 1 |

These compounds were tested on Two-Spotted Mite [Tetranychus urticae (Koch)] (assay: Two-Spotted Mite (2SM) plant dip assay, mortality seven days later). Details: adult mites.
Type: in vivo
Source text: as §1
Pinto bean plants (Phaseolus vulgaris) approximately 10 cm high were transplanted into sandy loam soil in three-inch clay pots. The plants were thoroughly infested with two-spotted mites of mixed ages and sexes. Twenty-four hours after infestation the plants were inverted and dipped for 2-3 seconds in 50--50 acetone-water solutions of the test compounds.
Mortality ratings for both adult mites and nymphs hatching after treatment were taken seven days later. Test concentrations ranged from 0.05% down to that at which 50% mortality occurs.
as §4

| SMILES | LD50 2SM Adults |
| --- | --- |
| CCOP(=S)(OCC)SCC(=O)N1CCN(C(=O)Oc2ccccc2)CC1 [Compound 23, 1-N-phenyloxycarbo-4-N-O,O-diethylphosphorodithioylacetyl piperazine] | < .05% |
| CCOP(=S)(OCC)SCC(=O)N1CCN(C(=O)SC)CC1 [Compound 27, 1-N-methylthiocarbo-4-N-O,O-diethylphosphorodithioylacetyl piperazine] | < .05% |
| COP(=S)(OC)SCC(=O)N1CCN(C(=O)SC(C)(C)C)CC1C (centres unmarked) [Compound 32, 1-N-carbo-t-butylthio-4-N'-O,O-dimethylphosphorodithioylacetyl-3-methyl piperazine] | > .05% |

Same assay, conditions: eggs (nymphs hatching after treatment)

| SMILES | LD50 2SM Eggs |
| --- | --- |
| CCOP(=S)(OCC)SCC(=O)N1CCN(C(=O)Oc2ccccc2)CC1 [Compound 23, 1-N-phenyloxycarbo-4-N-O,O-diethylphosphorodithioylacetyl piperazine] | < .05% |
| CCOP(=S)(OCC)SCC(=O)N1CCN(C(=O)SC)CC1 [Compound 27, 1-N-methylthiocarbo-4-N-O,O-diethylphosphorodithioylacetyl piperazine] | < .05% |
| COP(=S)(OC)SCC(=O)N1CCN(C(=O)SC(C)(C)C)CC1C (centres unmarked) [Compound 32, 1-N-carbo-t-butylthio-4-N'-O,O-dimethylphosphorodithioylacetyl-3-methyl piperazine] | > .05% |

The compounds below were run on Housefly [Musca domestica (Linn.)] (assay: not given). Details: topical, 48 h.

| SMILES | LD50 HF [μg/25] |
| --- | --- |
| CCOP(=S)(OCC)SCC(=O)N1CCN(C(=O)Oc2ccccc2)CC1 [Compound 23, 1-N-phenyloxycarbo-4-N-O,O-diethylphosphorodithioylacetyl piperazine] | > 10 |
| CCOP(=S)(OCC)SCC(=O)N1CCN(C(=O)SC)CC1 [Compound 27, 1-N-methylthiocarbo-4-N-O,O-diethylphosphorodithioylacetyl piperazine] | > 10 |
| COP(=S)(OC)SCC(=O)N1CCN(C(=O)SC(C)(C)C)CC1C (centres unmarked) [Compound 32, 1-N-carbo-t-butylthio-4-N'-O,O-dimethylphosphorodithioylacetyl-3-methyl piperazine] | > 10 |
| CCOP(=S)(OCC)SCC(=O)N1CCN(C(=O)SC(C)(C)C)CC1C (centres unmarked) [Compound 33, 1-N-carbo-t-butylthio-4-N'-O,O-diethylphosphorodithioylacetyl-3-methyl piperazine] | > 10 |

The compounds below were run on Tobacco Budworm [Heliothis virescens (Fabricius)] (assay: not given). Details: leaf dip, Romaine lettuce leaves.

| SMILES | LD50 TBW |
| --- | --- |
| CCOP(=S)(OCC)SCC(=O)N1CCN(C(=O)Oc2ccccc2)CC1 [Compound 23, 1-N-phenyloxycarbo-4-N-O,O-diethylphosphorodithioylacetyl piperazine] | > .1% |
| CCOP(=S)(OCC)SCC(=O)N1CCN(C(=O)SC)CC1 [Compound 27, 1-N-methylthiocarbo-4-N-O,O-diethylphosphorodithioylacetyl piperazine] | > .1% |
| COP(=S)(OC)SCC(=O)N1CCN(C(=O)SC(C)(C)C)CC1C (centres unmarked) [Compound 32, 1-N-carbo-t-butylthio-4-N'-O,O-dimethylphosphorodithioylacetyl-3-methyl piperazine] | > .05% |
| CCOP(=S)(OCC)SCC(=O)N1CCN(C(=O)SC(C)(C)C)CC1C (centres unmarked) [Compound 33, 1-N-carbo-t-butylthio-4-N'-O,O-diethylphosphorodithioylacetyl-3-methyl piperazine] | > .05% |
